Patent publication US5753715A, “2-disubstituted cyclohexenyl and cyclohexyl antimicrobial agents” (Ortho Pharmaceutical Corporation, priority 1995, dated 1998)
≈ marks a conversion by molar mass, not a printed value.

Tests used:
Kinase A and SpoOF = target: T1, Kinase A and SpoOF (Bacillus subtilis, UniProt P16497); test: Autophosphorylation of Kinase A and Transphosphorylation of SPoOF Assay; format: biochemical; conditions: inhibition of Kinase A autophosphorylation / SpoOF transphosphorylation, [32P]ATP, gel, phosphoimager
T1 sequence (P16497 1-606): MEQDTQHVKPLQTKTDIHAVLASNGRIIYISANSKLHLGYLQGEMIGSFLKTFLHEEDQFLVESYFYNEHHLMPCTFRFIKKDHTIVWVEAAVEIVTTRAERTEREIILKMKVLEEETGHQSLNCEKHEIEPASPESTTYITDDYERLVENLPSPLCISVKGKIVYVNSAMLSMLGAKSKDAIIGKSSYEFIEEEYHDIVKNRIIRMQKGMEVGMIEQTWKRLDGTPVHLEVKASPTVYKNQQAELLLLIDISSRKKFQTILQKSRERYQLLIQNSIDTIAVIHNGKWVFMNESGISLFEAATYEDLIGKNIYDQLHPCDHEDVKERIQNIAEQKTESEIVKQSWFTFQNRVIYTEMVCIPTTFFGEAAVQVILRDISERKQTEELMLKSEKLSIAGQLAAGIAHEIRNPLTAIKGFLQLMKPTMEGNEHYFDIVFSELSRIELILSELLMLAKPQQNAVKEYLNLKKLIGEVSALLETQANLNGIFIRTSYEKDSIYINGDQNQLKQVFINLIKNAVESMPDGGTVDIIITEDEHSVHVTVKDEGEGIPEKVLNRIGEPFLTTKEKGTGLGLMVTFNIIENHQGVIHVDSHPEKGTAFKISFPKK

S. aureus ATCC 29213 = test: MIC, microdilution broth method (NCCLS); format: cell-based; conditions: cation supplemented Mueller Hinton broth, 35° C., 16-20 hours; unit assumed
Experimental: (§1) The in vitro antimicrobial spectrum of the compounds of the present invention were determined by the microdilution broth method following the test method from the National Committee for […] (NCCLS ). The method is described in the NCCLS Document M7-A2, Vol. 10, No.8 "Methods for Dilution Antimicrobial Susceptibility Test for Bacteria that Grow Aerobically--Second Edition".
(§2) In this method two fold serial dilutions of drug in cation supplemented Mueller Hinton broth are added to wells in microdilution trays. The test organisms are prepared by adjusting the turbidity of actively growing broth cultures so that the final concentration of test organism after it is added to the wells is approximately 5×10^4 colony forming units per well delivered by the Steers replicating device.
(§3) Following inoculation of the microdilution trays, the trays are incubated at 35° C. for 16-20 hours and then read. […] The amount of growth in the wells containing the test compound is compared with the amount of growth in the growth-control wells used in each tray.

A. niger 10578 = test: MIC, microdilution broth method (NCCLS); format: cell-based; conditions: cation supplemented Mueller Hinton broth, 35° C., 16-20 hours; unit assumed
Experimental: as §1, §2, §3

MRSA oc667 = test: MIC, microdilution broth method (NCCLS); format: cell-based; conditions: cation supplemented Mueller Hinton broth, 35° C., 16-20 hours; unit assumed
Experimental: as §1, §2, §3

MRSA oc2089 = test: MIC, microdilution broth method (NCCLS); format: cell-based; conditions: cation supplemented Mueller Hinton broth, 35° C., 16-20 hours; unit assumed
Experimental: as §1, §2, §3

E. coli oc2605 = test: MIC, microdilution broth method (NCCLS); format: cell-based; conditions: cation supplemented Mueller Hinton broth, 35° C., 16-20 hours; unit assumed
Experimental: as §1, §2, §3

K. pneum. oc1943 = test: MIC, microdilution broth method (NCCLS); format: cell-based; conditions: cation supplemented Mueller Hinton broth, 35° C., 16-20 hours; unit assumed
Experimental: as §1, §2, §3

E. faecalis oc3041 = test: MIC, microdilution broth method (NCCLS); format: cell-based; conditions: cation supplemented Mueller Hinton broth, 35° C., 16-20 hours; unit assumed
Experimental: as §1, §2, §3

Ps. aerug. oc27853 = test: MIC, microdilution broth method (NCCLS); format: cell-based; conditions: cation supplemented Mueller Hinton broth, 35° C., 16-20 hours; unit assumed
Experimental: as §1, §2, §3

E. faecalis ACTCC 29212 = test: MIC, microdilution broth method (NCCLS); format: cell-based; conditions: cation supplemented Mueller Hinton broth, 35° C., 16-20 hours; unit assumed
Experimental: as §1, §2, §3

Ps. aerug. oc161 = test: MIC, microdilution broth method (NCCLS); format: cell-based; conditions: cation supplemented Mueller Hinton broth, 35° C., 16-20 hours; unit assumed
Experimental: as §1, §2, §3

E. faecium oc2993 = test: MIC, microdilution broth method (NCCLS); format: cell-based; conditions: cation supplemented Mueller Hinton broth, 35° C., 16-20 hours; unit assumed
Experimental: as §1, §2, §3

E. coli oc2530 = test: MIC, microdilution broth method (NCCLS); format: cell-based; conditions: cation supplemented Mueller Hinton broth, 35° C., 16-20 hours; unit assumed
Experimental: as §1, §2, §3

C. albicans 10231 = test: MIC, microdilution broth method (NCCLS); format: cell-based; conditions: cation supplemented Mueller Hinton broth, 35° C., 16-20 hours; unit assumed
Experimental: as §1, §2, §3

C. tropicalis = test: MIC, microdilution broth method (NCCLS); format: cell-based; conditions: cation supplemented Mueller Hinton broth, 35° C., 16-20 hours; unit assumed
Experimental: as §1, §2, §3

S. epi oc2603 = test: MIC, microdilution broth method (NCCLS); format: cell-based; design: unit not given here; conditions: cation supplemented Mueller Hinton broth, 35° C., 16-20 hours
Experimental: as §1, §2, §3

IC50 (Kinase A and SpoOF) | IC min (Kinase A and SpoOF) | Compound | also measured
94.6 mM | 62.5 mM | NCCNCCc1ccc(OCCC2(Cc3cccc(Cl)c3)C=CCCC2)cc1 (stereo not drawn) [Compound 61] | –
82.1 mM | 62.5 mM | CNCCCc1ccc(OCCC2(Cc3ccccc3)C=CCCC2)cc1 (stereo not drawn) [Compound 19] | –
21 mM | 15.6 mM | COc1ccc(CC2(CCOc3ccc(CCNC(=N)N)cc3)C=CCCC2)cc1 (stereo not drawn) [Compound 47] | –
174 mM | – | NCCCc1ccc(OCCC2(Cc3ccc(Cl)cc3)C=CCCC2)cc1 (stereo not drawn) [Compound 52] | –
210 mM | 125 mM | COc1ccc(CC2(CCOc3ccc(CCCN)cc3)C=CCCC2)cc1 (stereo not drawn) [Compound 43] | –
122 mM | – | COc1ccc(CC2(CCOc3ccccc3CN)C=CCCC2)cc1 (stereo not drawn) [Compound 54] | –
107.7 mM | 62.5 mM | CNCCc1cccc(OCCC2(Cc3ccccc3)C=CCCC2)c1 (stereo not drawn) [Compound 37] | –
46.6 mM | – | COc1ccc(CC2(CCOc3ccc(CNC(=N)N)cc3)C=CCCC2)cc1 (stereo not drawn) [Compound 57] | –
66.6 mM | – | COc1ccc(CC2(CCOc3cccc(CNC(=N)N)c3)C=CCCC2)cc1 (stereo not drawn) [Compound 56] | –
295 mM | 125 mM | CC(C)C1(CCOc2ccc(CCNCCN3CCCC3)cc2)C=CCCC1 (stereo not drawn) [Compound 23] | –
468.4 mM | 125 mM | CNCCCc1ccc(OCCC2(C(C)C)C=CCCC2)cc1 (stereo not drawn) [Compound 35] | –
164.1 mM | 125 mM | N=C(N)NCCCc1ccc(OCCC2(Cc3ccccc3)C=CCCC2)cc1 (stereo not drawn) [Compound 38] | –
91 mM | 62.5 mM | CNCCCc1ccc(OCCC2(CCCc3ccccc3)C=CCCC2)cc1 (stereo not drawn) [Compound 31] | –
728 mM | 500 mM | C1=CC(CCOc2ccc(CCCNCCN3CCOCC3)cc2)(Cc2ccccc2)CCC1 (stereo not drawn) [Compound 21] | –
318 mM | 125 mM | CCCNCCCc1ccc(OCCC2(c3ccc(F)cc3)C=CCCC2)cc1 (stereo not drawn) [Compound 27] | –
354 mM | 125 mM | O=C(O)CCc1ccc(OCCC2(c3ccc(F)cc3)C=CCCC2)cc1 (stereo not drawn) [Compound 12] | –
43.5 mM | 15.6 mM | NCCc1ccc(OCCC2(Cc3ccc([N+](=O)[O-])cc3)CCCCC2)cc1 [Compound 16] | –
261 mM | 125 mM | NCCCc1ccc(OCCC2(Cc3ccccc3)C=CCCC2)cc1 (stereo not drawn) [Compound 18] | –
74.8 mM | – | NCc1cccc(OCCC2(Cc3cc(Cl)cc(Cl)c3)C=CCCC2)c1 (stereo not drawn) [Compound 58] | –
437 mM | 250 mM | CCCCNCCCc1ccc(OCCC2(c3ccc(F)cc3)C=CCCC2)cc1 (stereo not drawn) [Compound 26] | –
– | > 1000 mM | COc1ccc(CC2(CCOc3ccc(C(N)=O)cc3)C=CCCC2)cc1 (stereo not drawn) [Compound 51] | –

Compound | IC50 (Kinase A and SpoOF) | IC min (Kinase A and SpoOF) | also measured
CNCCCc1ccc(OCCC2(c3ccc(F)cc3)C=CCCC2)cc1 (stereo not drawn) [Compound 24] | 185 mM | 125 mM | MIC S. aureus ATCC 29213 (S. aureus ATCC 29213): 8 µg/mL (≈ 21.8 µM); MIC A. niger 10578 (A. niger 10578): 4 µg/mL (≈ 10.9 µM); MIC MRSA oc667 (MRSA oc667): 8 µg/mL (≈ 21.8 µM); MIC MRSA oc2089 (MRSA oc2089): 8 µg/mL (≈ 21.8 µM); MIC E. coli oc2605 (E. coli oc2605): > 64 µg/mL; MIC K. pneum. oc1943 (K. pneum. oc1943): > 128 µg/mL; MIC E. faecalis oc3041 (E. faecalis oc3041): 8 µg/mL (≈ 21.8 µM); MIC Ps. aerug. oc27853 (Ps. aerug. oc27853): > 128 µg/mL; MIC E. faecalis ACTCC 29212 (E. faecalis ACTCC 29212): 8 µg/mL (≈ 21.8 µM); MIC Ps. aerug. oc161 (Ps. aerug. oc161): > 128 µg/mL; MIC E. faecium oc2993 (E. faecium oc2993): 8 µg/mL (≈ 21.8 µM); MIC E. coli oc2530 (E. coli oc2530): 8 µg/mL (≈ 21.8 µM); MIC C. albicans 10231 (C. albicans 10231): 8 µg/mL (≈ 21.8 µM); MIC C. tropicalis (C. tropicalis): 8 µg/mL (≈ 21.8 µM); MIC S. epi oc2603 (S. epi oc2603): 8
NCCc1ccc(OCCC2(Cc3ccccc3)CCCCC2)cc1 [Compound 13] | 39.5 mM | 7.8 mM | –
NCCc1ccc(OCCC2(Cc3ccc(Cl)cc3)C=CCCC2)cc1 (stereo not drawn) [Compound 33] | 339.5 mM | 125 mM | –
